This assay has as its system Clostridium difficile. Description: Recurring Clostridium difficile diarrhoea model induced by CFT in golden hamsters. It is filed as in vivo.
The mark [1] stands for this setting: B group: six + 14 doses of VCM, 48 hours after termination of vancomycin.

Molecules are shown by their SMILES. “Also recorded” adds a separate entry of the source.

For the molecule `CN[C@H](CC(C)C)C(=O)N[C@H]1C(=O)N[C@@H](CC(N)=O)C(=O)N[C@H]2C(=O)N[C@H]3C(=O)N[C@H](C(=O)N[C@H](C(=O)O)c4cc(O)cc(O)c4-c4cc3ccc4O)[C@H](O)c3ccc(c(Cl)c3)Oc3cc2cc(c3O[C@@H]2O[C@H](CO)[C@@H](O)[C@H](O)[C@H]2O[C@H]2C[C@](C)(N)[C@H](O)[C@H](C)O2)Oc2ccc(cc2Cl)[C@H]1O` [vancomycin], under setting [1], the “faecal state compared with A group” value is listed as “improvement in the faecal state” and the “ratio of Clostridium difficile detection” value was “one out of five”. In addition, the faecal state result (six doses of vancomycin) was “discernible improvement in the faecal state”. The “culture of Clostridium difficile from faeces” value (six doses of vancomycin (3 days administration), detection limit 400CFu/g faeces) is listed as “not so effective as to show negative culture; also recorded: positive culture”. The “culture of Clostridium difficile” value (vancomycin continued for a total of 10 days) is on record as “negative culture”.

Source of the values: patent publication EP0456418B1, “Treatment of clostridium difficile diarrhoea and pseudomembranous colitis” (KABUSHIKI KAISHA MIYARISAN SEIBUTSU IGAKU KENKYUSHO, priority 1990, dated 1991).
